From publication PMC9020739, “Identification of a two-component regulatory system involved in antimicrobial peptide resistance in Streptococcus pneumoniae” (PLoS Pathogens, 2022)
Where a SMILES comes first, the peptide text is derived from it. Bridges are numbered along the chain shown (N, C = ends). [ ]: non-standard residue; d: D form. The star is where a group is joined. X1 = CC[C@H](C)CCCCC(=O)*; Dab = NCC[C@H](N)C(=O)O

Experiments:
[1] = target: BceAB transporter from S. pneumoniae (Streptococcus pneumoniae, UniProt A0A0H2ZN40); assay type: biochemical; conditions: for nH (positive cooperativity): ATPase/GTPase activity as a function of nucleotide concentration, fitted with positive cooperativity, proteoliposomes
Procedure: E. coli BL21(DE3) cells were transformed with pRSF-Duet1-BceAB WT, K48A or E170Q and selected on LB-agar plates containing 50 μg/mL kanamycin. One colony was inoculated into in 2L-baffled flasks containing 500 mL of 2YT medium and 50 μg/mL kanamycin and grown at 37°C, 180 rpm to OD600 of 0.6. Protein expression was induced by adding IPTG to a final concentration of 1 mM. Induction was performed overnight at 25°C and cells were harvested by centrifugation at 7,000 g for 20 min.
Cells were resuspended in buffer A (HEPES-NaOH 100 mM pH 8.0, NaCl 150 mM) and lysed by passaging them three times through a cell disruptor (Microfluidizer, Microfluidics) at 18,000 psi (or 1,24 x 108 Pa). Undisrupted cells and cell debris were removed by centrifugation at 15,000 x g for 30 min at 4°C. Membranes were harvested from the supernatant after ultracentrifugation at 150,000 x g for 1 h at 4°C. Membranes were resuspended in 20 mL of buffer A and centrifuged once again at 150,000 x g for 1 h at 4°C. Membrane pellets were homogenized in buffer HEPES-NaOH 100 mM pH 8.0, NaCl 150 mM and 20% glycerol, and stored at -80°C.
For the purification of BceAB, membranes from 0,5 L cell culture were diluted in buffer B (100 mM d’HEPES-NaOH pH 8, 150 mM NaCl, 10% glycerol) to a protein concentration of 4 mg/mL and solubilized with 0.5% (w/v) LMNG for 2 h at 4°C. After ultracentrifugation at 150,000 x g for 1 h at 4°C, the supernatant containing solubilized proteins was diluted four times using buffer B and loaded on Ni^2+-charged immobilized metal-ion affinity chromatography (IMAC) column (1 mL HisTrap HP, Cytiva). The column was washed with 10 mL of buffer B containing 0.005% (w/v) LMNG and 20 mM of imidazole. The column was further washed with the same buffer until OD280nm reached basal levels. BceAB was eluted by buffer B containing 0.005% (w/v) LMNG and an imidazole gradient from 20 to 500 mM of imidazole. Purified BceAB was dialyzed into buffer B containing 0.005% (w/v) LMNG and stored at -80°C.
The proteoliposomes were prepared as previously described for the transporter BmrA [50]. Proteoliposomes were loaded on sucrose gradient with different layers of 400 μL of 50 mM HEPES-KOH pH 8.0 buffer containing 30, 20, 15 or 10% of sucrose. One mL of proteoliposomes was loaded on the top of the sucrose gradient and ultra-centrifuged at 200,000 x g for 12 h at 4°C. Proteoliposomes were typically collected from the 15% layer and were loaded on SDS-PAGE to analyze and quantify the presence of BceAB by using a standard-curve of purified BceAB and ImageJ.
These activities were performed as previously described.

S. pneumoniae R6 WT = assay type: cell-based, Streptococcus pneumoniae; conditions: R6 strain; for Minimum Inhibitory Concentration, WT: 2-fold broth dilution, Todd-Hewitt medium, 96-well plates, start OD600 0.002, 37°C, A600 followed 15 h, two to four biological replicates, each technical duplicates; for Fold sensitivity displayed by the KO strains: KO strains versus WT MIC
Procedure: (§1) The MIC of various antimicrobial peptides for R6, R800 and D39 strains was determined by classical 2-fold broth dilution method. Cells were first grown in Todd-Hewitt medium at 37°C without agitation and in anaerobic conditions until the absorbance reaches approximatively 0.3. Complementation strains were grown with 0.5 μM ComS inducer until the appropriate OD. Cells were then diluted at final OD600nm = 0.002 in 96-well plates containing 300 μL of Todd-Hewitt medium (and 2 μM ComS inducer for the complementation strains) with serial dilutions of antimicrobial peptides. Pneumococcal growth was monitored by a microplate reader (TECAN) at 37°C without agitation. The absorbance was followed at 600 nm every 15 min for 15 h.

[2] = system: S. pneumoniae R6 ΔbceAB/tcs01; assay type: cell-based, Streptococcus pneumoniae; conditions: R6 strain; 2-fold broth dilution, Todd-Hewitt medium, 37°C, 15 h; two to four biological replicates, each technical duplicates
Procedure: as §1

S. pneumoniae R6 ΔbceAB = assay type: cell-based, Streptococcus pneumoniae; conditions: R6 strain; 2-fold broth dilution, Todd-Hewitt medium, 37°C, 15 h; two to four biological replicates, each technical duplicates
Procedure: as §1

S. pneumoniae R6 Δtcs01 = assay type: cell-based, Streptococcus pneumoniae; conditions: R6 strain; 2-fold broth dilution, Todd-Hewitt medium, 37°C, 15 h; two to four biological replicates, each technical duplicates
Procedure: as §1

S. pneumoniae D39 WT = assay type: cell-based, Streptococcus pneumoniae; conditions: D39 strain; for Minimum Inhibitory Concentration, WT: 2-fold broth dilution, Todd-Hewitt medium, 37°C, 15 h, two to four biological replicates, each technical duplicates; for Fold sensitivity diplayed by the KO strains: KO strains versus WT MIC
Procedure: as §1

[3] = system: S. pneumoniae D39 ΔbceAB/tcs01; assay type: cell-based, Streptococcus pneumoniae; conditions: D39 strain; 2-fold broth dilution, Todd-Hewitt medium, 37°C, 15 h; two to four biological replicates, each technical duplicates
Procedure: as §1

S. pneumoniae D39 ΔbceAB = assay type: cell-based, Streptococcus pneumoniae; conditions: D39 strain; 2-fold broth dilution, Todd-Hewitt medium, 37°C, 15 h; two to four biological replicates, each technical duplicates
Procedure: as §1

S. pneumoniae D39 Δtcs01 = assay type: cell-based, Streptococcus pneumoniae; conditions: D39 strain; 2-fold broth dilution, Todd-Hewitt medium, 37°C, 15 h; two to four biological replicates, each technical duplicates
Procedure: as §1

S. pneumoniae R800 WT = assay type: cell-based, Streptococcus pneumoniae; conditions: R800 strain; 2-fold broth dilution, Todd-Hewitt medium, 37°C, 15 h; at least biological triplicates, each technical duplicates
Procedure: as §1

[4] = system: S. pneumoniae R800 bceAB-gfp; assay type: cell-based, Streptococcus pneumoniae; conditions: R800 strain; 2-fold broth dilution, Todd-Hewitt medium, 37°C, 15 h; at least biological triplicates, each technical duplicates
Procedure: as §1

[5] = system: S. pneumoniae R800 ΔbceAB-Δhk01-PcomX-hk01; assay type: cell-based, Streptococcus pneumoniae; conditions: R800 complementation strain, 2 μM ComS inducer; 2-fold broth dilution, Todd-Hewitt medium, 37°C, 15 h; at least biological triplicates, each technical duplicates
Procedure: as §1

[6] = system: S. pneumoniae R800 ΔbceAB; assay type: cell-based, Streptococcus pneumoniae; conditions: R800 strain; 2-fold broth dilution, Todd-Hewitt medium, 37°C, 15 h; at least biological triplicates, each technical duplicates
Procedure: as §1

[7] = system: S. pneumoniae R800 Δhk01-PcomX-hk01; assay type: cell-based, Streptococcus pneumoniae; conditions: R800 complementation strain, 2 μM ComS inducer; 2-fold broth dilution, Todd-Hewitt medium, 37°C, 15 h; at least biological triplicates, each technical duplicates
Procedure: as §1

S. pneumoniae R800 Δhk01 = assay type: cell-based, Streptococcus pneumoniae; conditions: R800 strain; 2-fold broth dilution, Todd-Hewitt medium, 37°C, 15 h; at least biological triplicates, each technical duplicates
Procedure: as §1

| Molecule | Minimum Inhibitory Concentration, WT (S. pneumoniae R6 WT) [µg/mL] | Fold sensitivity displayed by the KO strains (S. pneumoniae R6 WT) | Minimum Inhibitory Concentration, ΔbceAB/tcs01 [2] [µg/mL] | Minimum Inhibitory Concentration, ΔbceAB (S. pneumoniae R6 ΔbceAB) [µg/mL] | Minimum Inhibitory Concentration, Δtcs01 (S. pneumoniae R6 Δtcs01) [µg/mL] | also measured |
| --- | --- | --- | --- | --- | --- | --- |
| Nc1ncnc2c1ncn2[C@@H]1O[C@H](COP(=O)(O)OP(=O)(O)OP(=O)(O)O)[C@@H](O)[C@H]1O [ATP] | – | – | – | – | – | nH (positive cooperativity) [1]: 2.4 |
| Nc1nc2c(ncn2[C@@H]2O[C@H](COP(=O)(O)OP(=O)(O)OP(=O)(O)O)[C@@H](O)[C@H]2O)c(=O)[nH]1 [GTP] | – | – | – | – | – | nH (positive cooperativity) [1]: 1.9 |
| CC[C@H](C)CCCCC(=O)N[C@@H](CCN)C(=O)N[C@H](C(=O)N[C@@H](CCN)C(=O)N[C@H]1CCNC(=O)[C@H]([C@@H](C)O)NC(=O)[C@H](CCN)NC(=O)[C@H](CCN)NC(=O)[C@H](CC(C)C)NC(=O)[C@@H](CC(C)C)NC(=O)[C@H](CCN)NC1=O)[C@@H](C)O [colistin] (X1-[Dab]T[Dab][Dab][Dab][dL]L[Dab][Dab]T; lactam 4-C (inferred); N-terminus assumed) | 256 | 1 | 256 | 256 | 256 | – |
| CC[C@H](C)[C@H](N)C(=O)N[C@@H](CC(N)=O)C(=O)N[C@@H](CC(C)C)C(=O)N[C@@H](CCCCN)C(=O)N[C@@H](C)C(=O)N[C@@H](CC(C)C)C(=O)N[C@@H](C)C(=O)N[C@@H](C)C(=O)N[C@@H](CC(C)C)C(=O)N[C@@H](C)C(=O)N[C@@H](CCCCN)C(=O)N[C@@H](CCCCN)C(=O)N[C@H](C(=O)N[C@@H](CC(C)C)C(N)=O)[C@@H](C)CC [mastoporan] | – | 1 | – | – | – | – |
| Microbisporicin [Microbisporicin (NAI-107)] | 0.032 | 4 | 0.008 | 0.008 | 0.008 | – |
| Planosporicin [Planosporicin (NAI-97)] | 16 | 8 | 2 | 2 | 2 | – |
| actagardin | 32 | 16 | 2 | 2 | 2 | Minimum Inhibitory Concentration, WT (S. pneumoniae D39 WT): 32 µg/mL; Fold sensitivity diplayed by the KO strains (S. pneumoniae D39 WT): 16; Minimum Inhibitory Concentration, ΔbceAB/tcs01 [3]: 2 µg/mL; Minimum Inhibitory Concentration, ΔbceAB (S. pneumoniae D39 ΔbceAB): 2 µg/mL; Minimum Inhibitory Concentration, Δtcs01 (S. pneumoniae D39 Δtcs01): 2 µg/mL; MIC, WT (S. pneumoniae R800 WT): 32 µg/mL; MIC, bceAB-gfp [4]: 32 µg/mL; MIC, ΔbceAB-Δhk01-PcomX-hk01 [5]: 4 µg/mL; MIC, ΔbceAB [6]: 4 µg/mL; MIC, Δhk01-PcomX-hk01 [7]: 32 µg/mL; MIC, Δhk01 (S. pneumoniae R800 Δhk01): 4 µg/mL |
| gramicidin | 0.016 | 1 | 0.016 | 0.016 | 0.016 | – |
| ramoplanin | 0.02 | 1 | 0.02 | 0.02 | 0.02 | Minimum Inhibitory Concentration, WT (S. pneumoniae D39 WT): 0.03 µg/mL; Fold sensitivity diplayed by the KO strains (S. pneumoniae D39 WT): 1; Minimum Inhibitory Concentration, ΔbceAB/tcs01 [3]: 0.03 µg/mL; Minimum Inhibitory Concentration, ΔbceAB (S. pneumoniae D39 ΔbceAB): 0.03 µg/mL; Minimum Inhibitory Concentration, Δtcs01 (S. pneumoniae D39 Δtcs01): 0.03 µg/mL; MIC, WT (S. pneumoniae R800 WT): 0.02 µg/mL; MIC, bceAB-gfp [4]: 0.02 µg/mL; MIC, ΔbceAB-Δhk01-PcomX-hk01 [5]: 0.02 µg/mL; MIC, ΔbceAB [6]: 0.02 µg/mL; MIC, Δhk01-PcomX-hk01 [7]: 0.02 µg/mL; MIC, Δhk01 (S. pneumoniae R800 Δhk01): 0.02 µg/mL; Effect on ATPase activity of BceAB ([1]; BceAB proteoliposomes, Fig 7B, triplicates, representative of at least two experiments): clear inhibitory effect |
